According to ChEMBL document CHEMBL1201862, “PubChem BioAssay data set” (2004):
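Step 1: Grow cells in 96-well plates. Step 2: Expose to compound for 48 hours at 5 concentrations. Step 3: Interpolate endpoints linearly; if unreached, use highest concentration. GI50: concentration for 50% inhibition of growth.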 Active and inactive are the calls of the source. Cut-off read from the data, not from the text of the source: active = GI50 up to about 1.1 µM and inactive = higher.

How the values were obtained:
Assay in all cases: NCI-60 cell line screen, 48 h
786-0 = test system: 786-0
A498 = test system: A498
A549 = test system: A549
ACHN = test system: ACHN
CAKI-1 = test system: CAKI-1
CCRF-CEM = test system: CCRF-CEM
COLO 205 = test system: COLO 205
DLD-1 = test system: DLD-1
DMS-114 = test system: DMS-114
DMS-273 = test system: DMS-273
EKVX = test system: EKVX
HCC 2998 = test system: HCC 2998
HCT-116 = test system: HCT-116
HCT-15 = test system: HCT-15
HL-60 = test system: HL-60
HOP-62 = test system: HOP-62
HOP-92 = test system: HOP-92
IGROV-1 = test system: IGROV-1
K562 = test system: K562
KM-20L2 = test system: KM-20L2
KM12 = test system: KM12
LOX IMVI = test system: LOX IMVI
LXFL 529 = test system: LXFL 529
M14 = test system: M14
M19-MEL = test system: M19-MEL
MOLT-4 = test system: MOLT-4
NCI-H23 = test system: NCI-H23
NCI-H460 = test system: NCI-H460
OVCAR-3 = test system: OVCAR-3
OVCAR-4 = test system: OVCAR-4
OVCAR-8 = test system: OVCAR-8
RPMI-8226 = test system: RPMI-8226
RXF 393 = test system: RXF 393
RXF 631 = test system: RXF 631
SF-268 = test system: SF-268
SF-295 = test system: SF-295
SF-539 = test system: SF-539
SK-MEL-28 = test system: SK-MEL-28
SK-MEL-2 = test system: SK-MEL-2
SK-MEL-5 = test system: SK-MEL-5
SK-OV-3 = test system: SK-OV-3
SN12C = test system: SN12C
SNB-19 = test system: SNB-19
SNB-75 = test system: SNB-75
SNB-78 = test system: SNB-78
SR = test system: SR
SW-620 = test system: SW-620
TK-10 = test system: TK-10
U-251 = test system: U-251
UACC-257 = test system: UACC-257
UACC-62 = test system: UACC-62
UO-31 = test system: UO-31
XF498 = test system: XF498
HOP-18 = test system: HOP-18
HT-29 = test system: HT-29
Malme-3M = test system: Malme-3M
NCI-H226 = test system: NCI-H226
NCI-H522 = test system: NCI-H522
OVCAR-5 = test system: OVCAR-5

## O=C1NN=CN2C(=O)CCC12 (configuration not stated)
786-0
  GI50: > 100 µM (inactive)
A498
  GI50: > 100 µM (inactive)
A549
  GI50: > 100 µM (inactive)
ACHN
  GI50: > 100 µM (inactive)
CAKI-1
  GI50: > 100 µM (inactive)
CCRF-CEM
  GI50: > 100 µM (inactive)
COLO 205
  GI50: > 100 µM (inactive)
DLD-1
  GI50: > 100 µM (inactive)
DMS-114
  GI50: > 100 µM (inactive)
DMS-273
  GI50: > 100 µM (inactive)
EKVX
  GI50: > 100 µM (inactive)
HCC 2998
  GI50: > 100 µM (inactive)
HCT-116
  GI50: > 100 µM (inactive)
HCT-15
  GI50: > 100 µM
HL-60
  GI50: > 100 µM (inactive)
HOP-62
  GI50: > 100 µM (inactive)
HOP-92
  GI50: > 100 µM (inactive)
IGROV-1
  GI50: > 100 µM (inactive)
K562
  GI50: > 100 µM (inactive)
KM-20L2
  GI50: > 100 µM (inactive)
KM12
  GI50: > 100 µM (inactive)
LOX IMVI
  GI50: > 100 µM (inactive)
LXFL 529
  GI50: > 100 µM (inactive)
M14
  GI50: > 100 µM (inactive)
M19-MEL
  GI50: > 100 µM (inactive)
MOLT-4
  GI50: > 100 µM (inactive)
NCI-H23
  GI50: > 100 µM (inactive)
NCI-H460
  GI50: > 100 µM (inactive)
OVCAR-3
  GI50: > 100 µM (inactive)
OVCAR-4
  GI50: > 100 µM (inactive)
OVCAR-8
  GI50: > 100 µM (inactive)
RPMI-8226
  GI50: > 100 µM (inactive)
RXF 393
  GI50: > 100 µM (inactive)
RXF 631
  GI50: > 100 µM (inactive)
SF-268
  GI50: > 100 µM (inactive)
SF-295
  GI50: > 100 µM (inactive)
SF-539
  GI50: > 100 µM (inactive)
SK-MEL-28
  GI50: > 100 µM (inactive)
SK-MEL-2
  GI50: > 100 µM (inactive)
SK-MEL-5
  GI50: > 100 µM (inactive)
SK-OV-3
  GI50: > 100 µM (inactive)
SN12C
  GI50: > 100 µM (inactive)
SNB-19
  GI50: > 100 µM (inactive)
SNB-75
  GI50: > 100 µM (inactive)
SNB-78
  GI50: > 100 µM (inactive)
SR
  GI50: > 100 µM (inactive)
SW-620
  GI50: > 100 µM (inactive)
TK-10
  GI50: > 100 µM (inactive)
U-251
  GI50: > 100 µM (inactive)
UACC-257
  GI50: > 100 µM (inactive)
UACC-62
  GI50: > 100 µM (inactive)
UO-31
  GI50: > 100 µM (inactive)
XF498
  GI50: > 100 µM (inactive)

## Cc1ccc(/N=C/c2ccc3c(c2)OCO3)cc1C
786-0
  GI50: > 100 µM (inactive)
A498
  GI50: > 100 µM (inactive)
A549
  GI50: > 100 µM (inactive)
ACHN
  GI50: > 100 µM (inactive)
CAKI-1
  GI50: > 100 µM (inactive)
CCRF-CEM
  GI50: > 100 µM (inactive)
COLO 205
  GI50: > 100 µM (inactive)
DLD-1
  GI50: > 100 µM (inactive)
DMS-273
  GI50: > 100 µM (inactive)
EKVX
  GI50: > 100 µM (inactive)
HCT-116
  GI50: > 100 µM (inactive)
HCT-15
  GI50: > 100 µM
HL-60
  GI50: > 100 µM (inactive)
HOP-18
  GI50: > 100 µM (inactive)
HOP-92
  GI50: > 100 µM (inactive)
HT-29
  GI50: > 100 µM (inactive)
IGROV-1
  GI50: > 100 µM (inactive)
K562
  GI50: > 10 µM (inactive)
KM-20L2
  GI50: > 100 µM (inactive)
KM12
  GI50: > 100 µM (inactive)
LOX IMVI
  GI50: > 100 µM (inactive)
LXFL 529
  GI50: > 100 µM (inactive)
M14
  GI50: > 100 µM (inactive)
M19-MEL
  GI50: > 100 µM (inactive)
MOLT-4
  GI50: > 100 µM (inactive)
Malme-3M
  GI50: > 100 µM (inactive)
NCI-H226
  GI50: > 100 µM (inactive)
NCI-H23
  GI50: > 100 µM (inactive)
NCI-H460
  GI50: > 100 µM (inactive)
NCI-H522
  GI50: > 100 µM (inactive)
OVCAR-3
  GI50: > 100 µM (inactive)
OVCAR-5
  GI50: > 100 µM (inactive)
OVCAR-8
  GI50: > 100 µM (inactive)
RPMI-8226
  GI50: > 100 µM (inactive)
RXF 393
  GI50: > 100 µM (inactive)
RXF 631
  GI50: > 100 µM (inactive)
SF-268
  GI50: > 100 µM (inactive)
SF-295
  GI50: > 100 µM (inactive)
SF-539
  GI50: > 100 µM (inactive)
SK-MEL-28
  GI50: > 100 µM (inactive)
SK-MEL-2
  GI50: > 100 µM (inactive)
SK-MEL-5
  GI50: > 100 µM (inactive)
SK-OV-3
  GI50: > 100 µM (inactive)
SN12C
  GI50: > 100 µM (inactive)
SNB-19
  GI50: > 100 µM (inactive)
SNB-75
  GI50: > 100 µM (inactive)
SNB-78
  GI50: > 100 µM (inactive)
SR
  GI50: > 100 µM (inactive)
SW-620
  GI50: > 100 µM (inactive)
TK-10
  GI50: > 100 µM (inactive)
U-251
  GI50: 8.13 µM (inactive)
UACC-62
  GI50: > 100 µM (inactive)
UO-31
  GI50: > 100 µM (inactive)
XF498
  GI50: > 100 µM (inactive)
